Measurements reported in PubChem BioAssay (NCI).
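These data come from cells grown in 96-well plates and exposed to compound for 48 hours at five concentrations. GI50 = concentration required for 50% inhibition of growth. TGI is the concentration that stops growth completely.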

What was measured:
Experiment in all cases: DTP human tumour cell line panel, 48 h
[1] = test system: A498 renal
[2] = test system: A549 NSCLC
[3] = test system: ACHN renal
[4] = test system: BT-549 breast
[5] = test system: CAKI-1 renal
[6] = test system: CCRF-CEM leukemia
[7] = test system: COLO 205 colon
[8] = test system: HCT-15 colon
[9] = test system: HOP-62 NSCLC
[10] = test system: HOP-92 NSCLC
[11] = test system: IGROV1 ovarian
[12] = test system: K-562 leukemia
[13] = test system: KM12 colon
[14] = test system: LOX IMVI melanoma
[15] = test system: M14 melanoma
[16] = test system: MALME-3M melanoma
[17] = test system: MCF7 breast
[18] = test system: NCI-H226 lung
[19] = test system: NCI-H23 lung
[20] = test system: RPMI-8226 leukemia
[21] = test system: RXF 393 renal
[22] = test system: SF-268 CNS
[23] = test system: SF-295 CNS
[24] = test system: SF-539 CNS
[25] = test system: SK-MEL-5 melanoma
[26] = test system: SK-OV-3 ovarian
[27] = test system: SN12C renal
[28] = test system: SR leukemia
[29] = test system: SW-620 colon
[30] = test system: TK-10 renal
[31] = test system: U251 CNS
[32] = test system: UACC-257 melanoma
[33] = test system: UACC-62 melanoma
[34] = test system: UO-31 renal
[35] = test system: 786-0 renal
[36] = test system: DU-145 prostate
[37] = test system: HCC-2998 colon
[38] = test system: HCT-116 colon
[39] = test system: HS 578T breast
[40] = test system: MDA-MB-435
[41] = test system: MOLT-4 leukemia
[42] = test system: NCI-H460 lung
[43] = test system: NCI-H522 lung
[44] = test system: NCI/ADR-RES ovarian
[45] = test system: OVCAR-3 ovarian
[46] = test system: OVCAR-4 ovarian
[47] = test system: OVCAR-5 ovarian
[48] = test system: OVCAR-8 ovarian
[49] = test system: PC-3 prostate
[50] = test system: SK-MEL-2 melanoma
[51] = test system: SK-MEL-28 melanoma
[52] = test system: SNB-19 CNS
[53] = test system: T-47D breast

**Q.** Which results are given for `COc1cc([C@@H]2c3cc4c(cc3C[C@@H]3COC(=O)C32)OCO4)cc(OC)c1O` (some centres not stated)?
**A.** TGI [1]: > 100 µM; TGI [2]: > 93.4 µM; TGI [3]: 23.5 µM; TGI [4]: > 100 µM; TGI [5]: 0.823 µM; TGI [6]: 0.0526 µM; TGI [7]: 0.0933 µM; TGI [8]: > 100 µM; TGI [9]: 24.3 µM; TGI [10]: 34.9 µM; TGI [11]: 79.1 nM; TGI [12]: > 100 µM; TGI [13]: > 100 µM; TGI [14]: 15.7 µM; TGI [15]: > 100 µM; TGI [16]: 0.07 µM; TGI [17]: 0.071 µM; TGI [18]: > 59.9 µM; TGI [19]: > 100 µM; TGI [20]: 0.137 µM; TGI [21]: 0.0635 µM; TGI [22]: > 32.6 µM; TGI [23]: 0.0585 µM; TGI [24]: 44.3 nM; TGI [25]: 1.04 µM; TGI [26]: 2.47 µM; TGI [27]: > 77.4 µM; TGI [28]: 50.3 nM; TGI [29]: > 100 µM; TGI [30]: > 100 µM; TGI [31]: > 100 µM; TGI [32]: > 100 µM; TGI [33]: > 52.1 µM; TGI [34]: > 100 µM

**Q.** `CC(C)CNc1nc(-c2ccccc2)nc2ccccc12` was tested. Which GI50 [35] did it give?
**A.** 14.4 µM

**Q.** What about the TGI [35] of the same compound?
**A.** 27.5 µM

**Q.** What about the GI50 [1] of the same compound?
**A.** 15.1 µM

**Q.** And the TGI [1]?
**A.** 29.5 µM

**Q.** What about the GI50 [2] of the same compound?
**A.** 15.1 µM

**Q.** And the TGI [2]?
**A.** 31.8 µM

**Q.** What about the GI50 [3] of the same compound?
**A.** 16 µM

**Q.** And the TGI [3]?
**A.** 29.5 µM

**Q.** What about the GI50 [5] of the same compound?
**A.** 15.4 µM

**Q.** What about the TGI [5] of the same compound?
**A.** 29.8 µM

**Q.** What about the GI50 [6] of the same compound?
**A.** 15.3 µM

**Q.** What about the TGI [6] of the same compound?
**A.** 36.6 µM

**Q.** And the GI50 [7]?
**A.** 14.8 µM

**Q.** What about the TGI [7] of the same compound?
**A.** 40.3 µM

**Q.** What about the GI50 [36] of the same compound?
**A.** 14.8 µM

**Q.** And the TGI [36]?
**A.** 28.2 µM

**Q.** And the GI50 [37]?
**A.** 15.9 µM

**Q.** What about the TGI [37] of the same compound?
**A.** 29.8 µM

**Q.** And the GI50 [38]?
**A.** 13.8 µM

**Q.** What about the TGI [38] of the same compound?
**A.** 26.7 µM

**Q.** What about the GI50 [8] of the same compound?
**A.** > 100 µM

**Q.** What about the TGI [8] of the same compound?
**A.** > 100 µM

**Q.** And the GI50 [9]?
**A.** 17.7 µM

**Q.** What about the TGI [9] of the same compound?
**A.** 31.5 µM

**Q.** And the GI50 [10]?
**A.** 12.3 µM

**Q.** And the TGI [10]?
**A.** 28.6 µM

**Q.** What about the GI50 [39] of the same compound?
**A.** 16.5 µM

**Q.** What about the TGI [39] of the same compound?
**A.** 33.9 µM

**Q.** What about the GI50 [11] of the same compound?
**A.** 27.4 µM

**Q.** What about the TGI [11] of the same compound?
**A.** > 100000 nM

**Q.** What about the GI50 [12] of the same compound?
**A.** 11.1 µM

**Q.** What about the TGI [12] of the same compound?
**A.** 30.8 µM

**Q.** And the GI50 [13]?
**A.** 12.7 µM

**Q.** What about the TGI [13] of the same compound?
**A.** 26.4 µM

**Q.** And the GI50 [14]?
**A.** 14.7 µM

**Q.** And the TGI [14]?
**A.** 28.3 µM

**Q.** And the GI50 [15]?
**A.** 13.5 µM

**Q.** What about the TGI [15] of the same compound?
**A.** 26.4 µM

**Q.** And the GI50 [16]?
**A.** 13.4 µM

**Q.** And the TGI [16]?
**A.** 26.4 µM

**Q.** What about the GI50 [17] of the same compound?
**A.** 18.6 µM

**Q.** What about the TGI [17] of the same compound?
**A.** 44.4 µM

**Q.** What about the GI50 [40] of the same compound?
**A.** 18.5 µM

**Q.** And the TGI [40]?
**A.** 37.9 µM

**Q.** And the GI50 [41]?
**A.** 13.7 µM

**Q.** What about the TGI [41] of the same compound?
**A.** 38.1 µM

**Q.** And the GI50 [18]?
**A.** 16.9 µM

**Q.** And the TGI [18]?
**A.** 35 µM

**Q.** What about the GI50 [19] of the same compound?
**A.** 17 µM

**Q.** And the TGI [19]?
**A.** 34.5 µM

**Q.** What about the GI50 [42] of the same compound?
**A.** 17.2 µM

**Q.** What about the TGI [42] of the same compound?
**A.** 41.1 µM

**Q.** What about the GI50 [43] of the same compound?
**A.** 26.3 µM

**Q.** What about the TGI [43] of the same compound?
**A.** > 100 µM

**Q.** What about the GI50 [44] of the same compound?
**A.** 13.4 µM

**Q.** What about the TGI [44] of the same compound?
**A.** 31.4 µM

**Q.** And the GI50 [45]?
**A.** 15.7 µM

**Q.** And the TGI [45]?
**A.** 31 µM

**Q.** What about the GI50 [46] of the same compound?
**A.** 13.5 µM

**Q.** What about the TGI [46] of the same compound?
**A.** 30 µM

**Q.** What about the GI50 [47] of the same compound?
**A.** 17.4 µM

**Q.** And the TGI [47]?
**A.** 32.2 µM

**Q.** What about the GI50 [48] of the same compound?
**A.** 15 µM

**Q.** What about the TGI [48] of the same compound?
**A.** 31.8 µM

**Q.** And the GI50 [49]?
**A.** 17.1 µM

**Q.** What about the TGI [49] of the same compound?
**A.** 34.8 µM

**Q.** And the GI50 [20]?
**A.** 4.31 µM

**Q.** What about the TGI [20] of the same compound?
**A.** 20.3 µM

**Q.** What about the GI50 [21] of the same compound?
**A.** 12.7 µM

**Q.** What about the TGI [21] of the same compound?
**A.** 31.8 µM

**Q.** And the GI50 [22]?
**A.** 18.3 µM

**Q.** And the TGI [22]?
**A.** 37.4 µM

**Q.** What about the GI50 [23] of the same compound?
**A.** 14.5 µM

**Q.** What about the TGI [23] of the same compound?
**A.** 28.9 µM

**Q.** What about the GI50 [50] of the same compound?
**A.** 29.6 µM

**Q.** And the TGI [50]?
**A.** > 100 µM

**Q.** And the GI50 [51]?
**A.** 17.3 µM

**Q.** And the TGI [51]?
**A.** 32.7 µM

**Q.** And the GI50 [25]?
**A.** 15.2 µM

**Q.** And the TGI [25]?
**A.** 29 µM

**Q.** And the GI50 [26]?
**A.** 15.3 µM

**Q.** What about the TGI [26] of the same compound?
**A.** 31.3 µM

**Q.** What about the GI50 [27] of the same compound?
**A.** 18.4 µM

**Q.** What about the TGI [27] of the same compound?
**A.** 38.6 µM

**Q.** And the GI50 [52]?
**A.** 19.2 µM

**Q.** And the TGI [52]?
**A.** 39.6 µM

**Q.** And the GI50 [28]?
**A.** 10.1 µM

**Q.** What about the TGI [28] of the same compound?
**A.** 30900 nM

**Q.** And the GI50 [53]?
**A.** 21.6 µM

**Q.** What about the TGI [53] of the same compound?
**A.** > 100 µM

**Q.** And the GI50 [30]?
**A.** 13.6 µM

**Q.** And the TGI [30]?
**A.** 26.6 µM

**Q.** And the GI50 [31]?
**A.** 12.2 µM

**Q.** And the TGI [31]?
**A.** 24.8 µM

**Q.** And the GI50 [33]?
**A.** 14.6 µM

**Q.** What about the TGI [33] of the same compound?
**A.** 29.4 µM

**Q.** And the GI50 [34]?
**A.** 17.3 µM

**Q.** What about the TGI [34] of the same compound?
**A.** 50.5 µM

**Q.** For `COc1ccc(-c2ccc(-c3ccc(C(=N)N)s3)s2)cc1Cl`, which GI50 [1] is on record?
**A.** 1.29 µM

**Q.** What about the TGI [1] of the same compound?
**A.** 2.6 µM

**Q.** And the GI50 [6]?
**A.** 1.81 µM

**Q.** And the TGI [6]?
**A.** 4.72 µM

**Q.** What about the GI50 [23] of the same compound?
**A.** 1.8 µM

**Q.** And the TGI [23]?
**A.** 3.3 µM

**Q.** And the GI50 [25]?
**A.** 1.88 µM

**Q.** And the TGI [25]?
**A.** 3.52 µM

**Q.** And the GI50 [28]?
**A.** 0.299 µM

**Q.** What about the TGI [28] of the same compound?
**A.** 1340 nM
